Entries after “also recorded” stand apart in the source; their conditions may differ.
System: parenchymal arterioles (PA)
Test: Pressurized arteriograph: vascular reactivity and structure of PA from female SHR
Assay type: in vivo, rat
Protocol: A separate group of SHR-F was used to determine if relaxin crosses the BBB by treating with relaxin (4 μg/hr) for 14 days and measuring relaxin concentration in cerebrospinal fluid (CSF) and serum (SHR-F-Rln-CSF, n=4). For the osmotic pump implant, animals were anesthetized with 3% isoflurane and minipumps implanted subcutaneously in the back of the neck. All animals received post-surgical analgesia (buprenorphine, 50 μg/kg, s.c.). Relaxin infusion was continuous for 14 days until animals were euthanized for isolated vessel experiments and tissue collection.
After collecting trunk blood, the brain was quickly removed and placed in cold physiological salt solution (PSS). PA between the M1 and M2 region of the MCA territory and the MCA from the same animals were carefully isolated from WKY-F, SHR-F, and SHR-F-Rln groups and mounted on glass cannulas. PA were identified as branches off the MCA that penetrated into the brain tissue, as previously described (han, S. L., and Cipolla, M. J. (2011) Relaxin causes selective outward remodeling of brain parenchymal arterioles via activation of peroxisome proliferator-activated receptor-gamma. FASEB J 25, 3229-3239). […] The proximal cannula was connected to an in-line pressure transducer and a servo-null pressure control system (Living Systems Instrumentation, Burlington, Vt., USA) that allowed intravascular pressure to be maintained at a set pressure or changed at a variable rate. The distal cannula was closed during the experiment to avoid flow-mediated responses. Temperature and pH were continuously measured and maintained at 37.0±0.5° C. and 7.40±0.05, respectively. Measurements of inner diameter (ID) and wall thickness (WT) were made via video microscopy (Living Systems Instrumentation, Burlington, Vt.).
PA and MCA were equilibrated for 1 hour, after which myogenic activity was determined by stepwise increases in pressure from 40 to 100 mmHg for PA or 50 to 175 mmHg for MCA. ID and WT were measured at each pressure once stable. Endothelium-dependent dilation was studied by adding NS309 (10^−8-10^−5 M), an activator of small- and intermediate-conductance calcium-activated potassium channels (SKCa, IKCa). NS309 was washed out of the bath and a single concentration of the nitric oxide synthase (NOS) inhibitor L-nitro-n-arginine (L-NNA, 10^−4 M) added to the bath. Constriction to NOS inhibition was used as an additional indicator of endothelial function. In the presence of L-NNA, sodium nitroprusside (SNP, 10^−8-10^−5 M) was added to the bath to assess endothelium-independent vasodilation. To obtain structural measurements, ID and WT were recorded at pressures between 5 to 200 mmHg for PA or 5 to 175 mmHg for MCA in zero-calcium PSS containing ethylene glycol tetra-acetic acid (EGTA) and outer diameter (OD) and distensibility calculated.
Percent tone was calculated as percent decrease in ID from the passive diameter at each intravascular pressure: [1−(IDactive/IDpassive)]×100. Percent reactivity for vasodilators was calculated as ((IDdose−IDstart)/(IDpassive−IDstart))×100. Percent constriction for vasoconstrictor was calculated as (1−(IDdose/IDstart))×100. OD was calculated from measured ID and WT: ID+2WT. Distensibility at a given pressure was calculated as (IDpassive−IDoriginal)/(IDoriginal)×100, where IDoriginal is defined as passive inner diameter determined at lowest pressure (5 mmHg). Data from qPCR study were analyzed using the −2^ΔΔCT method, as described previously (Livak, K. J., and Schmittgen, T. D. (2001) Analysis of relative gene expression data using real-time quantitative PCR and the 2(−Delta Delta C(T)) Method. Methods 25, 402-408). Data were removed when the Ct values of technical replicates differed by more than 0.5.

[1] = SHR-F-Rln vs untreated SHR-F, listed as Relaxin

relaxin
Reactivity of PA to NS309 (inner diameter increased by) (NS309 10^−6 M, vs 39±11% in SHR-F, p=0.058): 67±8%
PA inner diameter (SHR treated with human relaxin-2 4 μg/hr 14 days, untreated groups 58±3 and 49±3, p<0.05): 56±4 μm
PA distensibility (SHR, relaxin 4 μg/hr 14 days, vs 10±2% in SHR-F, p<0.05): 34±2%
Myogenic reactivity (active ID) of PA (SHR-F-Rln vs untreated SHR-F): did not affect
Myogenic tone (percent tone) of PA (SHR-F-Rln vs untreated SHR-F): did not affect
Passive ID of PA (SHR-F-Rln vs untreated SHR-F): increases the size; also recorded: increased
Passive OD of PA (SHR-F-Rln vs untreated SHR-F): increased
Passive distensibility of PA (SHR-F-Rln vs untreated SHR-F): increased
Myogenic tone (percent tone) of PA [1]: without affecting
Passive ID of PA [1]: increased
Passive distensibility of PA [1]: big effect; also recorded: increased
Reactivity of PA to the SKCa/IKCa activator NS309 [1]: tended to increase; also recorded: increased
Passive ID of PA (at 5 mmHg, vs 44±2 μm in SHR-F): 42±3 μm
Kind of structural remodeling of PA (hypertensive rats, relaxin alone): outward eutrophic remodeling

From US9393288B2, “Methods of treating diseases associated with PPARγ” (The University of Vermont and State Agricultural College, priority 2012, dated 2016)
